Measured values taken from EP1212309B1, “CASPASE INHIBITOR” (LG Chem Investment, Ltd., priority 1999, dated 2001).
pEC50, pKi: −log10 of the molar value. Several values for one entry are separate records, joined by “and”; a condition that tells them apart may be missing. Equal entries are not always repeated. Where two headings read alike, the source gives them in different places.

Assays:
Jurkat T cell = experiment: MTT assay of cell death induced by Anti-FAS antibody CH11; type: cell-based; settings: Jurkat T cell treated with Anti-FAS antibody CH11, MTT, read-out: ED50 FAS Induced cell death
WI38 cells = experiment: Protection from IFNγ and anti-Fas antibody-induced apoptosis (XTT); type: cell-based, human; settings: 100% when Fas antibody was not treated; for viability ratio: WI38 cells
Experimental: WI38 cells (human embryonal lung fibroblast) were grown in a medium containing DMEM-10% FBS within 10cm diameter dishes until reaching at confluency. The cells were seeded into a 24-well plate at day 1 and incubated overnight while the volume of medium was maintained to 400µℓ. […] At day 3, each 100 µℓ of test compound was added to the cells after diluting the 10mM stock compound in DMSO to final concentrations of 50, 10, 2, and 0.4 µ M, respectively. The cells were incubated for 2 hrs in order for allowing the compound to enter into the cells and then treated with 40ng/well of anti-Fas antibody(apoptosis was induced 2 hrs after antibody was treated and the incubation was continued overnight). The control was not treated with Fas antibody. […] After coloring, 100-200µℓ of the supernatant was transferred to a 96-well plate and the absorbance at 490 nm was read with ELISA plate reader. For the blank, XTT solution was added to the well containing the medium only. Plotting was determined by comparing with the control group (100% when Fas antibody was not treated).

caspase-1 = target: T1, caspase-1 (Homo sapiens, UniProt P29466); experiment: Screening on caspases inhibiting activity (recombinant enzyme, fluorogenic AMC substrate); type: biochemical; settings: for pKi: Reversible Inhibitor
T1 construct: made in house
T1 sequence (P29466 120-297 limits assumed): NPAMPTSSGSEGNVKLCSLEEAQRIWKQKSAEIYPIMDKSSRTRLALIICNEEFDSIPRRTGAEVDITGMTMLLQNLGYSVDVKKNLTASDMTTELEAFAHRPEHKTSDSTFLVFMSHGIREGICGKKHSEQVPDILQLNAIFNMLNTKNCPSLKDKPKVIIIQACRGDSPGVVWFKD
T1 sequence (P29466 317-404 limits assumed): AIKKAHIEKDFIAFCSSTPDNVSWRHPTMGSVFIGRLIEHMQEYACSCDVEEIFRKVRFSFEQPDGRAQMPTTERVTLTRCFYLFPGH
Experimental: (§1) In the present experiment, recombinant caspases were purified from a transformed bacterium after human caspase genes were cloned into the expression vector pET, and then used in the experiment (Thornberry, N.A. et .al. Nature, 1992, 356, 768. Thombeny, N.A. Methods in Enzymology, 1994, 615.).
(§2) Enzymatic activity was measured by a known procedure (Walker N.P.C. et al., Cell 1994, 78, 343). Briefly, 10 ng of recombinant protein was mixed with 50 mM Tris(pH 7.0), 1mM DTT, 0.5 mM EDTA, 10% Glycerol buffer containing 1∼100 µM of enzyme substrate, Ac-YVAD-AMC or Ac-DEVD-AMC and then the changes by isolated AMC at 37°C were recorded. The inhibitory activity for caspases was calculated from the early enzyme reaction rate by measuring the changes with fluorescence excited at […] and emitted at 460 nm (Range; Ki<100nM).

caspase-3 = target: T2, caspase-3 (Homo sapiens, UniProt P42574); experiment: as above; type: biochemical; settings: Irreversible Inhibitors
T2 construct: made in house
T2 sequence (P42574 29-175 limits assumed): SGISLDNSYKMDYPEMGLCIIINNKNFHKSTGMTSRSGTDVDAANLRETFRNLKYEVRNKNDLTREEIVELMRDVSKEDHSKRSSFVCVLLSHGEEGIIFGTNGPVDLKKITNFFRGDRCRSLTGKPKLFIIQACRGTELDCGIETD
T2 sequence (P42574 176-277 limits assumed): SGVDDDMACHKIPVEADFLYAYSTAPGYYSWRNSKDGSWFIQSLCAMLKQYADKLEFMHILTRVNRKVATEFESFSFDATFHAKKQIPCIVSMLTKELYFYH
Experimental: as §1, §2

CC1(C(=O)N[C@@H](CC(=O)O)C(=O)COc2ccccc2)CC([C@H](CCC(=O)O)NC(=O)CCC(=O)O)=NO1 (mixture of isomers) [Compound 46, (3S)-3-{3-[(1S)-1-(succinoylamino)-3-carboxy-propyl]-5-methyl-4,5-dihydro-isoxazole-5-carbonylamino}-4-keto-5-phenoxy-pentanoic acid]
pEC50 (Jurkat T cell; Homo sapiens): 5.00 to 6.00

CC(C)[C@H](NC(=O)CCC(=O)O)C1=NOC(C)(C(=O)N[C@@H](CC(=O)O)C(=O)COc2ccccc2)C1 (mixture of isomers) [Compound 47, (3S)-3-{3-[2-methyl-(1S)-1-(succinoylamino)-propyl]-5-methyl-4,5-dihydro-isoxazole-5-carbonylamino}-4-keto-5-phenoxy-pentanoic acid]
pEC50 (Jurkat T cell; Homo sapiens): 5.00 to 6.00

CC(C)[C@H](NC(=O)CCC(=O)O)C1=NOC(C)(C(=O)N[C@@H](CC(=O)O)C(=O)COc2ccc3ccccc3c2)C1 (single isomer, unassigned) [Compound 81]
pEC50 (Jurkat T cell; Homo sapiens): 5.00 to 6.00

CC(=O)N[C@@H](CC(=O)O)C(=O)N[C@@H](CCC(=O)O)C(=O)N[C@H](C(=O)N[C@H](C=O)CC(=O)O)C(C)C [Ac-DEVD-CHO, reference compound]
viability ratio (WI38 cells; Conc. 0.4 µM): 12.16%
viability ratio (WI38 cells; Conc. 2 µM): 14.75%
viability ratio (WI38 cells; Conc. 10 µM): 19.16%
viability ratio (WI38 cells; Conc. 50 µM, 50 µM): 35.1% and 35.14%

CC(C)[C@H](NC(=O)c1ccc2ccccc2c1)C1=NOC(COc2ccccc2)(C(=O)N[C@@H](CC(=O)O)C(=O)COc2ccc3ccccc3c2)C1 (stereo partly drawn) [Compound 25mp, (3S)-3-{3-[(1S)-1-(naphthalene-2-carbonylamino)-2-methyl-propyl]-5-phenoxymethyl-4,5-dihydro-isoxazole-5-carbonylamino}-4-keto-5-(2-naphthyloxy)-pent anoic acid]
pEC50 (Jurkat T cell; Homo sapiens): 5.00 to 6.00
pKi (caspase-1): 10.14

CC(C)[C@H](NC(=O)c1ccc2ccccc2c1)C1=NOC(Cc2ccccc2)(C(=O)N[C@@H](CC(=O)O)C(=O)COC(=O)c2c(Cl)cccc2Cl)C1 (stereo partly drawn) [Compound 28, (3S)-3-{3-{(1S)-1-(naphthalene-2-carbonylamino)-2-methyl-propyl]-5-phenylmethyl-4,5-dihydro-isoxazole-5-carbonylamino}-4-keto-5-(2,6-dichlorobenzoyloxy)-pentanoic acid]
viability at 0.4 µM (WI38 cells; Homo sapiens, WI-38, WI38 cells, Conc. 0.4 µM, read-out: viability ratio): 14.7%
viability at 2 µM (WI38 cells; Homo sapiens, WI-38, WI38 cells, Conc. 2 µM, read-out: viability ratio): 17.3%
viability at 10 µM (WI38 cells; Homo sapiens, WI-38, WI38 cells, Conc. 10 µM, read-out: viability ratio): 82.4%
viability at 50 µM (WI38 cells; Homo sapiens, WI-38, WI38 cells, Conc. 50 µM, read-out: viability ratio): 90%
viability ratio (WI38 cells; Conc. 50 µM, listed as Comp 28, 50 µM): 90.39%

CC(C)[C@H](NC(=O)c1ccc2ccccc2c1)C1=NOC(C(=O)N[C@@H](CC(=O)O)C(=O)COc2ccc3ccccc3c2)C1 (stereo partly drawn) [Compound 29, (3S)-3-{3-[(1S)-1-(naphthalene-2-carbonylamino)-2-methyl-propyl]-4,5-dihydro-isoxazole-5-carbonylamino}-4-keto-5-(2-naphthyloxy)-pentanoic acid]
pEC50 (Jurkat T cell; Homo sapiens): 5.00 to 6.00

CC(C)[C@H](NC(=O)c1ccc2ccccc2c1)C1=NOC(C(=O)N[C@@H](CC(=O)O)C(=O)COc2ccccc2)C1 (stereo partly drawn) [Compound 30, (3S)-3-{3-[2-methyl-(1S)-1-(2-naphthalenecarbonylamino)-propyl]-4,5-dihydro-isoxazole-5-carbonylamino}-4-keto-5-phenoxy-pentanoic acid]
pEC50 (Jurkat T cell; Homo sapiens): 5.00 to 6.00

CC(C)[C@H](NC(=O)c1ccc2ccccc2n1)C1=NOC(Cc2ccccc2)(C(=O)N[C@@H](CC(=O)O)C(=O)COc2ccccc2)C1 (stereo partly drawn) [Compound 43mp, (3S)-3-{3-[2-methyl-(1S)-1-(quinoline-2-yl-carbonylamino)-propyl]-5-phenylmethyl-4,5-dihydro-isoxazole-5-carbonylamino}-4-keto-5-phenoxy-pentanoic acid]
pEC50 (Jurkat T cell; Homo sapiens): 5.00 to 6.00
pKi (caspase-1): 8.40

CC(C)[C@H](NC(=O)c1cccc2ccccc12)C1=NOC(Cc2ccccc2)(C(=O)N[C@@H](CC(=O)O)C(=O)CN2CCCCC2)C1 (stereo partly drawn) [Compound 48, (3S)-3-{3-[2-methyl-(1S)-1-(1-naphtalenylcarbonylamino)-propyl]-5-phenylmethyl-4,5-dihydro-isoxazole-5-carbonylamino}-4-keto-5-(1-piperidinyl)-pentanoic acid]
pEC50 (Jurkat T cell; Homo sapiens): 5.00 to 6.00

CC(C)[C@H](NC(=O)c1cc2ccccc2[nH]1)C1=NOC(Cc2ccccc2)(C(=O)N[C@@H](CC(=O)O)C(=O)COC(=O)c2c(Cl)cccc2Cl)C1 (stereo partly drawn) [Compound 64, (3S)-3-{3-[2-methyl-(1S)-1-(indole-2-carbonylamino)-propyl]-5-phenylmethyl - 4,5-dihydro-isoxazole-5-carbonylamino}-4-keto-5-(2,6-dichlorobenzoyloxy)-pe ntanoic acid]
pEC50 (Jurkat T cell; Homo sapiens): 5.00 to 6.00

CC(C)[C@H](NC(=O)c1c[nH]c2ccccc12)C1=NOC(Cc2ccccc2)(C(=O)N[C@@H](CC(=O)O)C(=O)COC(=O)c2c(Cl)cccc2Cl)C1 (stereo partly drawn) [Compound 66, (3S)-3-{3-[2-methyl-(1S)-1-(indole-3-carbonylamino)-propyl]-5-phenylmethyl - 4,5-dihydro-isoxazole-5-carbonylamino}-4-keto-5-(2,6-dichlorobenzoyloxy)-pe ntanoic acid]
pEC50 (Jurkat T cell; Homo sapiens): 5.00 to 6.00

CC(C)[C@H](NC(=O)c1cccc2ccccc12)C1=NOC(C)(C(=O)N[C@@H](CC(=O)O)C(=O)COC(=O)c2c(Cl)cccc2Cl)C1 (stereo partly drawn) [Compound 68, (3S)-3-{3-[2-methyl-(1S)-1-(naphthalene-1-carbonylamino)-propyl]-5-methyl-4,5-dihydro-isoxazole-5-carbonylamino}-4-keto-5-(2,6-dichlorobenzoyloxy)-pen tanoic acid]
pEC50 (Jurkat T cell; Homo sapiens): 5.00 to 6.00

CC(C)[C@H](NC(=O)CCC(=O)O)C1=NOC(C)(C(=O)N[C@@H](CC(=O)O)C(=O)COC(=O)c2c(Cl)cccc2Cl)C1 (stereo partly drawn) [Compound 74, (3S)-3-{3-[2-methyl-(1S)-1-(succinoylamino)-propyl]-5-methyl-4,5-dihydro-isoxazole-5-carbonylamino}-4-keto-5-(2,6-dichlorobenzoyloxy)-pentanoic acid]
Kobs/[I] for caspase-1 (caspase-1; Irreversible Inhibitors): 14500 M⁻¹ s⁻¹
Kobs/[I] for caspase-3 (caspase-3): 40900 M⁻¹ s⁻¹

CC(C)[C@H](NC(=O)CCC(=O)O)C1=NOC(C)(C(=O)N[C@@H](CC(=O)O)C(=O)CN2CCCCC2)C1 (stereo partly drawn) [Compound 77, (3S)-3-{3-[2-methyl-(1S)-1-(succinoylamino)-propyl]-5-methyl-4,5-dihydro-isoxazole-5-carbonylamino}-4-keto-5-(N-piperidine)-pentanoic acid]
pEC50 (Jurkat T cell; Homo sapiens): 5.00 to 6.00
pKi (caspase-1): 4.54

CCCCCC1(C(=O)N[C@@H](CC(=O)O)C(=O)COC(=O)c2c(Cl)cccc2Cl)CC([C@@H](NC(=O)CCC(=O)O)C(C)C)=NO1 (stereo partly drawn) [Compound 90, (3S)-3-{3-[2-methyl-(1S)-1-(succinoylamino)-propyl]-5-n-pentyl-4,5-dihydro-isoxazole-5-carbonylamino}-4-keto-5-(2,6-dichlorobenzoyloxy)-pentanoic acid]
Kobs/[I] for caspase-3 (caspase-3): 80100 M⁻¹ s⁻¹

CC(C)[C@H](NC(=O)[C@H](CCC(=O)O)NC(=O)[C@H](CC(=O)O)NC(=O)OCc1ccccc1)C(=O)N[C@@H](CC(=O)O)C(=O)CCl [z-DEVD-cmk, reference compound]
viability ratio (WI38 cells; Conc. 0.4 µM): 15.13%
viability ratio (WI38 cells; Conc. 2 µM): 16.27%
viability ratio (WI38 cells; Conc. 10 µM): 27.38%
viability ratio (WI38 cells; Conc. 50 µM, 50 µM): 47.3% and 47.32%

(3S)-3-{3-[(1S)-1-(quinoline-2-yl-carbonylamino)-2-methyl-propyl]-5-phenox ymethyl-4,5-dihydro-isoxazole-5-carbonylamino}-4-keto-pentanoic acid [Compound 22mp]
pEC50 (Jurkat T cell): 5.00 to 6.00
pKi (caspase-1): 9.90
